From patent US9023789B2, “Amylin analogs and pharmaceutical compositions thereof” (Novo Nordisk A/S, priority 2012, dated 2015)
Numbered stars: 1 amine (or outer) side, 2 acyl side, 3 side chain; on linkers, the order of the positions; unused ones are H or OH. Bridge positions count the residues as written; N and C are the ends. Side chains are listed from the residue outwards. Peptide text beside a SMILES is read from it. * marks the point of attachment. C20 diacid = O=C(O)CCCCCCCCCCCCCCCCCCC(=O)*; γGlu = O=C(O)[C@H](CCC(=O)[*:2])N[*:1]

What was measured:
[1] = biological target: T1, human amylin 3(a) receptor (human calcitonin receptor + RAMP-3) in BHK570 cells (Homo sapiens, UniProt O60896+P30988); experiment: ASSAY (II)a functional assay, human amylin receptor (CRE luciferase); type: cell-based; settings: for EC50: human amylin receptor functional potency, assay (II), read-out: hAmylin-R funct. EC50
T1 construct: expressed in transfected cells
Method in brief: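 BHK cells stably carrying a CRE-luciferase reporter plus calcitonin receptor, or calcitonin receptor with RAMP-3 for the amylin 3(a) receptor, were seeded and kept overnight at 37° C. Compounds were added in assay medium with 10% FBS and 10 mM Hepes, pH 7.4, for 3 hours at 37° C, then luminescence was counted.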

[2] = biological target: T2, human amylin receptor (membranes from Amylin 3(a)/CRE-luc cells) (Homo sapiens, UniProt O60896+P30988); experiment: ASSAY (V) binding to the human amylin receptor (SPA, 125I-rat amylin); settings: for IC50: Table 4, read-out: hAmylin-R bind IC50;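 for all read-outs here: competition binding of cell membranes (35 ng/µL) mixed with SPA beads in 384-well plates at 40 µL total volume, read by scintillation counting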
T2 construct: expressed in transfected cells
T2 sequence (P30988 25-474): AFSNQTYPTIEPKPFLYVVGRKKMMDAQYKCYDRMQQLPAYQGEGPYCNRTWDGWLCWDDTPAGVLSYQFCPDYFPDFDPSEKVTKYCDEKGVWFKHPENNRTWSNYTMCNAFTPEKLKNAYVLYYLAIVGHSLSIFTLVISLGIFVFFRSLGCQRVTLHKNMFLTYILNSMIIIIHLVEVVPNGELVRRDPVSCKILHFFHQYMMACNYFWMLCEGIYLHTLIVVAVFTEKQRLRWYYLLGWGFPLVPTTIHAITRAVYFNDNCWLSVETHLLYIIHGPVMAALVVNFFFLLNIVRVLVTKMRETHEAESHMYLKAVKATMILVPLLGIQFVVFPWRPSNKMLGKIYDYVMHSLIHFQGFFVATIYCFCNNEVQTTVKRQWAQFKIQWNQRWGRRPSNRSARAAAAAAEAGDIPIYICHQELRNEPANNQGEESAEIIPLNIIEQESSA
T2 sequence (O60896 24-148 partner): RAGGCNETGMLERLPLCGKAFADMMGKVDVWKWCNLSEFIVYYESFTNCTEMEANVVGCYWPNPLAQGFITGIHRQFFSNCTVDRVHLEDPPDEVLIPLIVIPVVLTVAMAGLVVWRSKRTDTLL

[3] = biological target: T3, rat amylin receptor (rat calcitonin receptor + rat RAMP 3) (Rattus norvegicus, UniProt P32214+Q9JJ73); experiment: ASSAY (VI) binding to the rat amylin receptor; settings: for IC50: binding to rat amylin receptor, read-out: rAmylin-R bind IC50
T3 construct: expressed in transfected cells; host or cells: BHK tk'ts 13 (transient, FuGENE 6), membranes
T3 sequence (P32214 25-479 isoform P32214-2 limits assumed): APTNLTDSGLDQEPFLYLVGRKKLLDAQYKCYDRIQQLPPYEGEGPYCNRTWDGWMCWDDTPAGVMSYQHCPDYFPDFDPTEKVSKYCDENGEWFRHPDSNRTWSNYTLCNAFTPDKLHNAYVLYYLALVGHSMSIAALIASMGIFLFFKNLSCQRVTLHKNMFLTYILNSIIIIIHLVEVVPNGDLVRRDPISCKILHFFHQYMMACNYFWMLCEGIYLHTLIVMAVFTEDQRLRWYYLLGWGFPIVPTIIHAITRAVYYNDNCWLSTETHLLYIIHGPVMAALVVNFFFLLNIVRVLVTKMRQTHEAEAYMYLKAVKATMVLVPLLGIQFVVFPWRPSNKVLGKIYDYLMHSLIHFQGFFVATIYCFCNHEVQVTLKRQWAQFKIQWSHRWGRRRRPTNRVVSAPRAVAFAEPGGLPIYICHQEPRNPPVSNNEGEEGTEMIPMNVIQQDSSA
T3 sequence (Q9JJ73 23-147 partner): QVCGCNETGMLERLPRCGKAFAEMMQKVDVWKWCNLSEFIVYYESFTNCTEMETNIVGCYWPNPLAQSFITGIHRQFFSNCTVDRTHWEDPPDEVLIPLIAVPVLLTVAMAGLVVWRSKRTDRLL
Method in brief: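 Binding to the rat amylin receptor was determined with membrane preparations. The receptor was expressed by transiently transfecting BHK tk′ts 13 cells with rat calcitonin receptor, using FuGENE® 6 (Roche) according to the manufacturer's recommendations. Roughly 48 hours later the cells were harvested and their membranes isolated.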

[4] = hCTR funct. EC50 divided by hAmylin-R funct. EC50
[5] = hCTR funct. EC50 over hAmylin-R funct. EC50
[6] = human functional selectivity: hCTR funct. EC50 / hAmylin-R funct. EC50
[7] = Table 5, selectivity, hCTR bind IC50 / hAmylin-R bind IC50
[8] = Table 5a, selectivity, hCTR bind IC50 / hAmylin-R bind IC50
[9] = Table 5b, selectivity, hCTR bind IC50 / hAmylin-R bind IC50
[10] = Table 5c, selectivity, hCTR bind IC50 / hAmylin-R bind IC50
[11] = Table 7, human binding selectivity, included for comparison
[12] = Table 7a (preferred compounds), human binding selectivity, included for comparison
[13] = ratio of human calcitonin receptor binding IC50 to human amylin receptor binding IC50
[14] = Table 7, rat binding selectivity, rCTR IC50 / rAmylin-R IC50
[15] = Table 7a (preferred compounds), rat binding selectivity, rCTR IC50 / rAmylin-R IC50
[16] = ratio of rCTR bind IC50 to rAmylin-R bind IC50

| Ratio hCT/hAmylin funct. [1, 4] | Ratio hCT/hAmylin funct. [1, 5] | EC50 [1] [nM] | Ratio hCT/hAmylin funct. [1, 6] | IC50 [2] [nM] | Ratio hCT/hAmylin binding [2, 7] | Ratio hCT/hAmylin binding [2, 8] | Ratio hCT/hAmylin binding [2, 9] | Ratio hCT/hAmylin binding [2, 10] | Ratio hCT/hAmylin binding [2, 11] | Ratio hCT/hAmylin binding [2, 12] | Ratio hCT/hAmylin binding [2, 13] | IC50 ([3]; Table 7) [nM] | Ratio rCT/rAmylin binding [3, 14] | Ratio rCT/rAmylin binding [3, 15] | Ratio rCT/rAmylin binding [3, 16] | SMILES |
| --- | --- | --- | --- | --- | --- | --- | --- | --- | --- | --- | --- | --- | --- | --- | --- | --- |
| 17.0 | 17.0 | 0.116 | 17.0 | 0.443 | 69.7 | 69.7 | 69.7 | 69.7 | 69.7 | 69.7 | 69.7 | 0.558 | 201.3 | 201.3 | 201.3 | CC[C@H](C)[C@H](NC(=O)[C@H](C)NC(=O)CNC(=O)[C@H](Cc1ccccc1)NC(=O)[C@H](CC(N)=O)NC(=O)[C@@H]1CCCN1C(=O)[C@H](CO)NC(=O)[C@H](CO)NC(=O)[C@H](Cc1c[nH]cn1)NC(=O)[C@H](CCCNC(=N)N)NC(=O)[C@H](CC(C)C)NC(=O)[C@H](Cc1ccccc1)NC(=O)[C@H](CC(N)=O)NC(=O)[C@H](C)NC(=O)[C@H](CC(C)C)NC(=O)[C@H](CCCNC(=N)N)NC(=O)[C@H](CCC(N)=O)NC(=O)[C@@H](NC(=O)[C@H](C)NC(=O)[C@@H]1CSSC[C@H](NC(=O)[C@@H](N)CCCCNC(=O)CC[C@H](NC(=O)CCCCCCCCCCCCCCCCCCC(=O)O)C(=O)O)C(=O)N[C@@H](CC(N)=O)C(=O)N[C@@H]([C@@H](C)O)C(=O)N[C@@H](C)C(=O)N[C@@H]([C@@H](C)O)C(=O)N1)[C@@H](C)O)C(=O)N1CCC[C@H]1C(=O)N[C@@H](CO)C(=O)N[C@@H](CO)C(=O)N[C@H](C(=O)N[C@@H](CC(N)=O)C(=O)N[C@H](C(=O)NCC(=O)N[C@@H](CO)C(=O)N[C@@H](CC(N)=O)C(=O)N[C@H](C(=O)N[C@@H](Cc1ccc(O)cc1)C(N)=O)[C@@H](C)O)C(C)C)[C@@H](C)O [Example 48] |
| 21.0 | 21.0 |  | 21.0 |  | 79.6 | 79.6 | 79.6 | 79.6 | 79.6 | 79.6 | 79.6 | 0.529 | 117.5 | 117.5 | 117.5 | CC[C@H](C)[C@H](NC(=O)[C@H](C)NC(=O)CNC(=O)[C@H](Cc1ccccc1)NC(=O)[C@H](CC(N)=O)NC(=O)[C@@H]1CCCN1C(=O)[C@H](CO)NC(=O)[C@H](CO)NC(=O)[C@H](Cc1c[nH]cn1)NC(=O)[C@H](CCCNC(=N)N)NC(=O)[C@H](CC(C)C)NC(=O)[C@H](Cc1ccccc1)NC(=O)[C@H](CC(N)=O)NC(=O)[C@H](C)NC(=O)[C@H](CC(C)C)NC(=O)[C@H](CCCNC(=N)N)NC(=O)[C@H](CCC(N)=O)NC(=O)[C@@H](NC(=O)[C@H](C)NC(=O)[C@@H]1CSSC[C@H](NC(=O)[C@@H](N)CCCCNC(=O)COCCOCCNC(=O)COCCOCCNC(=O)CC[C@H](NC(=O)CCCCCCCCCCCCCCCCCCC(=O)O)C(=O)O)C(=O)N[C@@H](CC(N)=O)C(=O)N[C@@H]([C@@H](C)O)C(=O)N[C@@H](C)C(=O)N[C@@H]([C@@H](C)O)C(=O)N1)[C@@H](C)O)C(=O)N1CCC[C@H]1C(=O)N[C@@H](CO)C(=O)N[C@@H](CO)C(=O)N[C@H](C(=O)N1CCC[C@H]1C(=O)N[C@H](C(=O)NCC(=O)N[C@@H](CO)C(=O)N[C@@H](CC(N)=O)C(=O)N[C@H](C(=O)N[C@@H](Cc1ccc(O)cc1)C(N)=O)[C@@H](C)O)C(C)C)[C@@H](C)O [Example 96] |
| 33.0 | 33.0 |  | 33.0 |  | 103.7 | 103.7 | 103.7 | 103.7 | 103.7 | 103.7 | 103.7 | 2.24 | 71.1 | 71.1 | 71.1 | CC[C@H](C)[C@H](NC(=O)[C@H](C)NC(=O)CNC(=O)[C@H](Cc1ccccc1)NC(=O)[C@H](CC(N)=O)NC(=O)[C@@H]1CCCN1C(=O)[C@H](CO)NC(=O)[C@H](CO)NC(=O)[C@H](Cc1c[nH]cn1)NC(=O)[C@H](CCCNC(=N)N)NC(=O)[C@H](CC(C)C)NC(=O)[C@H](Cc1ccccc1)NC(=O)[C@H](CC(N)=O)NC(=O)[C@H](C)NC(=O)[C@H](CC(C)C)NC(=O)[C@H](CCCNC(=N)N)NC(=O)[C@H](CCC(N)=O)NC(=O)[C@@H](NC(=O)[C@H](C)NC(=O)[C@@H]1CSSC[C@H](NC(=O)[C@@H](N)CCCCNC(=O)COCCOCCNC(=O)COCCOCCNC(=O)CC[C@H](NC(=O)CCCCCCCCCCCCCCCCCCC(=O)O)C(=O)O)C(=O)N[C@@H](CC(N)=O)C(=O)N[C@@H]([C@@H](C)O)C(=O)N[C@@H](C)C(=O)N[C@@H]([C@@H](C)O)C(=O)N1)[C@@H](C)O)C(=O)N1CCC[C@H]1C(=O)N[C@@H](CO)C(=O)N[C@@H](CO)C(=O)N[C@H](C(=O)N[C@@H](CC(N)=O)C(=O)N[C@H](C(=O)NCC(=O)N[C@@H](Cc1c[nH]cn1)C(=O)N[C@@H](CC(N)=O)C(=O)N[C@H](C(=O)N[C@@H](Cc1ccc(O)cc1)C(N)=O)[C@@H](C)O)C(C)C)[C@@H](C)O [Example 97] |
| 24.5 | 24.5 | 0.161 | 24.5 | 0.79 | 46.1 | 46.1 | 46.1 | 46.1 | 46.1 | 46.1 | 46.1 | 1.65 | 21.5 | 21.5 | 21.5 | CC[C@H](C)[C@H](NC(=O)[C@H](C)NC(=O)CNC(=O)[C@H](Cc1ccccc1)NC(=O)[C@H](CC(N)=O)NC(=O)[C@@H]1CCCN1C(=O)[C@H](CO)NC(=O)[C@H](CO)NC(=O)[C@H](Cc1c[nH]cn1)NC(=O)[C@H](CCCNC(=N)N)NC(=O)[C@H](CC(C)C)NC(=O)[C@H](Cc1ccccc1)NC(=O)[C@H](CC(N)=O)NC(=O)[C@H](C)NC(=O)[C@H](CC(C)C)NC(=O)[C@H](CCCNC(=N)N)NC(=O)[C@H](CCC(N)=O)NC(=O)[C@@H](NC(=O)[C@H](C)NC(=O)[C@@H]1CSSC[C@H](NC(=O)[C@@H](N)CCCCNC(=O)CC[C@H](NC(=O)CCCCCCCCCCCCCCCCCCC(=O)O)C(=O)O)C(=O)N[C@@H](CC(N)=O)C(=O)N[C@@H]([C@@H](C)O)C(=O)N[C@@H](C)C(=O)N[C@@H]([C@@H](C)O)C(=O)N1)[C@@H](C)O)C(=O)N1CCC[C@H]1C(=O)N[C@@H](CO)C(=O)N[C@@H](CO)C(=O)N[C@H](C(=O)N[C@@H](CC(N)=O)C(=O)N[C@H](C(=O)NCC(=O)N[C@@H](CCCNC(=N)N)C(=O)N[C@@H](CC(N)=O)C(=O)N[C@H](C(=O)N[C@@H](Cc1ccc(O)cc1)C(N)=O)[C@@H](C)O)C(C)C)[C@@H](C)O [Example 79] (H-K([γGlu-C20 diacid])CNTATCATQRLANFLRHSSPNFGAIPSSTNVGRNTY-NH2; disulfide 2-7 (inferred); N-terminus assumed) |
